Laboratory results published in the NIST ThermoML archive (doi:10.1016/j.fluid.2015.03.038).
Several values for one entry are separate records, joined by “and”; a condition that tells them apart may be missing. Equal entries are not always repeated.

Conditions: Liquid

OCC(O)CO [glycerol]
Conditions | vapor or sublimation pressure
303.59 K, static (had to override TRC unc) | 4.15e-05 kPa
303.61 K, static (had to override TRC unc) | 4.19e-05 kPa
304.56 K, static (had to override TRC unc) | 4.68e-05 kPa
306.03 K, static (had to override TRC unc) | 5.56e-05 kPa
308.43 K, static (had to override TRC unc) | 7.28e-05 kPa
310.89 K, static (had to override TRC unc) | 9.63e-05 kPa
313.29 K, static (had to override TRC unc) | 0.000125 kPa
315.71 K, static (had to override TRC unc) | 0.0001634 kPa
318.12 K, static (had to override TRC unc) | 0.0002107 kPa
320.57 K, static (had to override TRC unc) | 0.0002701 kPa
322.95 K, static (had to override TRC unc) | 0.0003472 kPa
325.42 K, static (had to override TRC unc) | 0.0004428 kPa
327.82 K, static (had to override TRC unc) | 0.0005644 kPa
330.3 K, static (had to override TRC unc) | 0.0007165 kPa
332.72 K, static (had to override TRC unc) | 0.0009037 kPa
335.14 K, static (had to override TRC unc) | 0.001132 kPa
338.2 K, transpiration (had to override TRC unc) | 0.00151 kPa
338.25 K, static (had to override TRC unc) | 0.001502 kPa
340.68 K, static (had to override TRC unc) | 0.001872 kPa
341.7 K, transpiration (had to override TRC unc) | 0.0021 kPa
343.08 K, static (had to override TRC unc) | 0.00232 kPa
345.51 K, static (had to override TRC unc) | 0.002876 kPa
347.7 K, transpiration (had to override TRC unc) | 0.00355 kPa
347.91 K, static (had to override TRC unc) | 0.003529 kPa
350.34 K, static (had to override TRC unc) | 0.00436 kPa
351.5 K, transpiration (had to override TRC unc) | 0.00503 kPa
352.57 K, static (had to override TRC unc) | 0.00526 kPa
352.58 K, static (had to override TRC unc) | 0.00527 kPa
352.6 K, static (had to override TRC unc) | 0.00528 kPa
352.73 K, static (had to override TRC unc) | 0.005318 kPa
354.5 K, transpiration (had to override TRC unc) | 0.00631 kPa
354.98 K, static (had to override TRC unc) | 0.00639 kPa
354.99 K, static (had to override TRC unc) | 0.00641 kPa
355.18 K, static (had to override TRC unc) | 0.006488 kPa
357.39 K, static (had to override TRC unc) | 0.00777 kPa
357.42 K, static (had to override TRC unc) | 0.00782 kPa
357.5 K, transpiration (had to override TRC unc) | 0.00831 kPa
357.57 K, static (had to override TRC unc) | 0.007863 kPa
359.8 K, static (had to override TRC unc) | 0.00938 kPa
359.82 K, static (had to override TRC unc) | 0.00939 kPa
360.01 K, static (had to override TRC unc) | 0.009523 kPa
360.1 K, transpiration (had to override TRC unc) | 0.00989 kPa
362.42 K, static (had to override TRC unc) | 0.01146 kPa
362.63 K, static (had to override TRC unc) | 0.0117 kPa
362.66 K, static (had to override TRC unc) | 0.01179 kPa
363.2 K, transpiration (had to override TRC unc) | 0.01274 kPa
364.82 K, static (had to override TRC unc) | 0.0138 kPa
365.07 K, static (had to override TRC unc) | 0.0141 kPa
365.08 K, static (had to override TRC unc) | 0.01409 kPa
365.9 K, transpiration (had to override TRC unc) | 0.01529 kPa
367.45 K, static (had to override TRC unc) | 0.01686 kPa
367.48 K, static (had to override TRC unc) | 0.01696 kPa
369.89 K, static (had to override TRC unc) | 0.0202 kPa
369.91 K, static (had to override TRC unc) | 0.02016 kPa
370.3 K, transpiration (had to override TRC unc) | 0.0208 kPa
372.27 K, static (had to override TRC unc) | 0.024 kPa
372.29 K, static (had to override TRC unc) | 0.02415 kPa
374.7 K, static (had to override TRC unc) | 0.0286 kPa
374.73 K, static (had to override TRC unc) | 0.0286 kPa
377.08 K, static (had to override TRC unc) | 0.03379 kPa
377.11 K, static (had to override TRC unc) | 0.03408 kPa
377.77 K, static (had to override TRC unc) | 0.03569 kPa
380.17 K, static (had to override TRC unc) | 0.04186 kPa
380.19 K, static (had to override TRC unc) | 0.04192 kPa
382.55 K, static (had to override TRC unc) | 0.04942 kPa
382.59 K, static (had to override TRC unc) | 0.04972 kPa and 0.0496 kPa
384.99 K, static (had to override TRC unc) | 0.0582 kPa
385.01 K, static (had to override TRC unc) | 0.05821 kPa
387.37 K, static (had to override TRC unc) | 0.06807 kPa
387.39 K, static (had to override TRC unc) | 0.06861 kPa
389.8 K, static (had to override TRC unc) | 0.07986 kPa
389.83 K, static (had to override TRC unc) | 0.07998 kPa
392.18 K, static (had to override TRC unc) | 0.09311 kPa
392.2 K, static (had to override TRC unc) | 0.09367 kPa
394.61 K, static (had to override TRC unc) | 0.1087 kPa
394.64 K, static (had to override TRC unc) | 0.1087 kPa
397 K, static (had to override TRC unc) | 0.1258 kPa
397.02 K, static (had to override TRC unc) | 0.1266 kPa
399.42 K, static (had to override TRC unc) | 0.1462 kPa
399.45 K, static (had to override TRC unc) | 0.1464 kPa
401.81 K, static (had to override TRC unc) | 0.1688 kPa and 0.1687 kPa
401.83 K, static (had to override TRC unc) | 0.1694 kPa
404.23 K, static (had to override TRC unc) | 0.1952 kPa
404.26 K, static (had to override TRC unc) | 0.1952 kPa
406.62 K, static (had to override TRC unc) | 0.2242 kPa and 0.224 kPa
406.64 K, static (had to override TRC unc) | 0.2251 kPa
409.68 K, static (had to override TRC unc) | 0.2687 kPa
409.69 K, static (had to override TRC unc) | 0.269 kPa
412.08 K, static (had to override TRC unc) | 0.308 kPa
412.11 K, static (had to override TRC unc) | 0.3089 kPa
414.48 K, static (had to override TRC unc) | 0.3526 kPa
414.49 K, static (had to override TRC unc) | 0.3526 kPa
416.89 K, static (had to override TRC unc) | 0.4023 kPa
416.92 K, static (had to override TRC unc) | 0.4033 kPa
419.3 K, static (had to override TRC unc) | 0.4585 kPa and 0.4583 kPa
421.7 K, static (had to override TRC unc) | 0.521 kPa
421.73 K, static (had to override TRC unc) | 0.5224 kPa
424.1 K, static (had to override TRC unc) | 0.5919 kPa
424.11 K, static (had to override TRC unc) | 0.5923 kPa
426.5 K, static (had to override TRC unc) | 0.6698 kPa
426.53 K, static (had to override TRC unc) | 0.6725 kPa
428.91 K, static (had to override TRC unc) | 0.7586 kPa and 0.7584 kPa
431.31 K, static (had to override TRC unc) | 0.8565 kPa
431.34 K, static (had to override TRC unc) | 0.8583 kPa
433.72 K, static (had to override TRC unc) | 0.9653 kPa
433.73 K, static (had to override TRC unc) | 0.9671 kPa
436.11 K, static (had to override TRC unc) | 1.086 kPa
436.13 K, static (had to override TRC unc) | 1.087 kPa
